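Compound exposure: 48 hours, 5 concentrations, 96-well plates. Here, GI50 denotes the concentration required for 50% inhibition of growth. TGI is the concentration that stops growth completely.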
What was measured:
Assay in all cases: NCI tumour cell line growth inhibition, 48 h
RPMI-8226 leukemia = test system: RPMI-8226 leukemia
A498 renal = test system: A498 renal
ACHN renal = test system: ACHN renal
MDA-MB-435 = test system: MDA-MB-435
HS 578T breast = test system: HS 578T breast
SK-OV-3 ovarian = test system: SK-OV-3 ovarian
OVCAR-8 ovarian = test system: OVCAR-8 ovarian
SNB-19 CNS = test system: SNB-19 CNS

Row | Compound | GI50 (RPMI-8226 leukemia) [µM] | TGI (RPMI-8226 leukemia) [µM] | GI50 (A498 renal) [µM] | TGI (A498 renal) [µM] | GI50 (ACHN renal) [µM] | TGI (ACHN renal) [µM] | GI50 (MDA-MB-435) [µM] | TGI (MDA-MB-435) [µM] | GI50 (HS 578T breast) [µM] | TGI (HS 578T breast) [µM] | GI50 (SK-OV-3 ovarian) [µM] | TGI (SK-OV-3 ovarian) [µM] | GI50 (OVCAR-8 ovarian) [µM] | TGI (OVCAR-8 ovarian) [µM] | GI50 (SNB-19 CNS) [µM] | TGI (SNB-19 CNS) [µM]
1 | O=C(N/N=C/c1c(Cl)cccc1Cl)c1ccc(C(F)(F)F)nc1Nc1cccc(C(F)(F)F)c1 | 0.375 | 10.5 | 0.603 | 2.39 | 1.26 | 11.3 | 2.37 | > 100 | 1.75 | 18 | 1.69 | 6.3 | 1.07 | > 45.6 | 1.55 | > 100
2 | Clc1cc(Cl)cc(Nc2ccc3cc(OCCCN4CCOCC4)ccc3n2)c1 | 2.2 | 7.08 | 1.93 | 8.78 |  |  |  |  | 1.99 | 5.43 | 2.62 | 7.24 | 4.36 | > 100 |  | 
3 | COC(=O)CCC1=C(CC(=O)OC)C(C)=N/C1=C\c1[nH]c(-c2ccc[nH]2)cc1OC | 1.44 | 4.91 | 10.6 | 23.9 | 4.26 | 15.6 | 5.81 | 23.3 | 4.09 | 18.7 | 13.3 | 28.4 | 2.92 | 11.4 | 11.6 | 31.1
4 | O=[N+]([O-])c1ccc(CSCc2ccc(Cl)cc2)cc1 |  | > 100 |  | > 100 |  | > 100 |  | > 100 |  | > 100 |  | > 100 |  | > 100 |  | > 100
5 | Cc1nn(C(=O)c2ccc(Cl)cc2)c2c1C(c1ccc(O)cc1)SC(N)=N2 (stereo unspecified) |  | > 10 |  |  |  | > 10 |  | > 10 |  | > 10 |  | > 10 |  | > 10 |  | > 10
6 | O=C(CSC(c1ccccc1)c1ccccc1)N/N=C/c1ccco1 | 1.94 | 4.45 | 1.89 | 5.37 | 1.82 | 3.62 | 2.01 | 11.5 | 2.23 | 5.82 | 28.3 | > 73 | 1.84 | 6.67 | 36 | > 100
7 | C=C1CC[C@@H](C(C)C)C[C@@H]2[C@H]([C@H](O)C[C@]2(C)O)[C@@]2(C)CC[C@@H]1O2 | 3.38 | 17.2 | 26 | 42.9 | 16.5 | 30 | 16.4 | 32.1 | 31.5 | 82.7 | 20.2 | 38 | 21.4 | 46.4 | 19.2 | 33.2
8 | CC1=CC(=O)C(C(O)(C(F)(F)F)C(F)(F)F)C(C)(C)C1 (stereo unspecified) |  | > 10 |  | > 10 |  | > 10 |  | > 10 |  | > 10 |  | > 10 |  | > 10 |  | > 10
9 | O=C(N/N=C/c1ccc([N+](=O)[O-])o1)c1ccc(O)cc1 | 3.35 | 48.3 |  |  | 5.46 | > 100 | 1.65 | 3.19 | 21.7 | > 100 | 17.5 | > 100 | 4.86 | > 100 | 5.39 | > 100
10 | CCCCCCCCCCN1CCC(N2CCCCC2)CC1 | 1.83 | 5.21 | 9.27 | 21.7 | 4.31 | 13.7 | 1.47 | 3.55 | 2.06 | 6.25 | 2.77 | 8.31 | 3.81 | 14 | 3.95 | 14.5
11 | C[C@H]1CCC/C=C/[C@@H]2C[C@H](O)C[C@H]2[C@H](O)[C@@H](SCC(O)CO)CC(=O)O1 (stereo partly specified) |  |  | 24.4 | 50.2 | 25.7 | 92.8 | 35.5 | > 100 | 9.52 | > 100 | 34.7 | > 100 | > 100 | > 100 | 27.1 | 70.9
12 | O=C(CCCN1CCC2(CC1)C(=NC1CCCCC1)NC(=O)N2c1ccccc1)c1ccc(F)cc1 |  | 49.5 |  | 34.1 |  | > 100 |  | 38.8 |  | 88.4 |  |  |  | 68.4 |  | > 100
13 | COc1ccc2c(c1)C(C)Cc1c(ncnc1-n1cnc3cc(C)ccc31)N2C (stereo unspecified) | 0.0407 | 3.88 | 0.0255 | 0.0889 | 0.0688 | 15.3 |  |  | 0.0686 | 31.7 | 0.0591 | 11.7 | 0.244 | 0.938 | 0.216 | 20.4
14 | COc1ccc(Cc2cnc(NC(=O)c3ccc4c(c3)OCCO4)s2)cc1 | 0.0499 | > 100 | 0.0159 | 0.0592 | 0.0553 | > 100 |  |  | 0.0311 | > 76 | 0.0321 | > 100 | 0.0426 | > 100 | 0.0523 | 43.2
15 | Cc1ncc([N+](=O)[O-])n1CCNS(=O)(=O)CCCn1ncnc1[N+](=O)[O-] |  | > 100 |  | > 100 |  | > 100 |  | > 100 |  | > 100 |  | > 100 |  | > 100 |  | 
16 | Clc1ccc(N=CNc2ccc(-c3nc4ccccc4o3)cc2)cc1 | 23.7 | > 100 |  |  | 24.4 | > 100 | 21.1 | 49.8 | 1.89 | 28 | 28.6 | > 100 | 21.1 | 40.9 | 35.8 | > 100
17 | CO/N=C(/C)c1cccc(Nc2cc(-c3ccccc3)nc3ccc(OC)cc23)c1 | 3.12 | 8.28 |  |  | 14.1 | 31.5 | 1.99 | 6.12 | 27.6 | 64.3 | 29.2 | 72 |  |  | 35.2 | > 100
18 | S=C1SC2=Nc3ccccc3CN2C2=NCCN12 | > 100 | > 100 |  |  | > 100 | > 100 | > 100 | > 100 |  |  | > 100 | > 100 | > 100 | > 100 | > 100 | > 100

Reference: PubChem BioAssay (NCI)
